Assays:
[1] = test system: MDA-MB-435 breast xenografts; details: positive control
Protocol: Female NCr nude mice were injected intravenously (q7dx3, beginning day 15) via the lateral tail vein. […] Paclitaxel (⋄) was prepared in […]/12.5% ethanol/75% saline and injected iv (q1dx5) at a dose of 15 mg/kg/dose. Drug-to-lipid ratio was 0.3/1 (w/w). Data points represent median tumor volume (n=6).
(§1) The anti-tumor activity of multiple (q7d3) dose schedules of liposomal vinorelbine was evaluated in several human xenograft tumor models. The goal of this series of studies was to identify the benefits of encapsulation by evaluating a series of doses and determining the therapeutic index in several xenograft models. Models were selected based on the following criteria: (1) activity in the single dose studies, (2) a comprehensive literature review of vinca alkaloid efficacy, (3) a desire to include at least 2-3 models that represent the clinical use of vinorelbine, and (4) a desire to include models with a range of sensitivity to vinorelbine so that improvements resulting from the use of the liposome formulation might be identified. Based on these criteria, MX-1 and MDA-MB-435 breast models, the NCl-H460 NSCLC model and the HT-29 and DLD-1 colon models were chosen.
(§2) Therapeutic index (TI) is a parameter that quantifies the “safety factor” of a particular therapy. TI is a ratio of a toxicity parameter and a biological activity parameter. Therefore, a higher ratio represents a greater potential margin of safety. For these studies, TI is defined as follows: […]
(§3) The minimal effective dose (MED) was set according to NCl activity criteria as the dose resulting in an optimal % T/C of 40. This information was derived from Table 7.

[2] = adults, cited from earlier work
[3] = test system: NCl H460 non small cell lung xenografts; assay: Multiple dose (q7dx3) anti-tumor activity, NCl H460 non small cell lung xenograft; details: positive control
Protocol: Female NCr nude mice were injected intravenously (q7dx3, beginning day 7) via the lateral tail vein. […] Mitomycin C (⋄) was prepared in saline and injected iv (q4dx3) at a dose of 3 mg/kg/dose. Drug-to-lipid ratio was 0.3/1 (w/w). Data points represent median tumor volume (n=6).
as §1, §2, §3

DLD-1 colon xenografts = details: positive control
Protocol: Female NCr nude mice were injected intravenously (q7dx3) via the lateral tail vein on days indicated by an asterisk (*). […] Irinotecan (⋄) was prepared in saline and injected iv (q4dx3) at a dose of 90 mg/kg/dose. Drug-to-lipid ratio was 0.3/1 (w/w). Data points represent median tumor volume (n=6).
as §1, §2, §3

With CC(=O)O[C@H]1C(=O)[C@@]2(C)[C@H]([C@H](OC(=O)c3ccccc3)[C@]3(O)C[C@H](OC(=O)[C@H](O)[C@@H](NC(=O)c4ccccc4)c4ccccc4)C(C)=C1C3(C)C)[C@]1(OC(C)=O)CO[C@@H]1C[C@@H]2O [Paclitaxel] the “% T/C (optimal % T/C following final treatment)” value ([1]; 15 mg/kg/dose iv q1dx5) was −55%, the “NCI Score” value ([1]; 15 mg/kg/dose iv q1dx5) was 3 and the “T-C (tumor growth delay to 1000 mm^3)” value ([1]; 15 mg/kg/dose iv q1dx5) was 36.9. For the same compound, the “TF (tumor free animals at the end of study)” value ([1]; 15 mg/kg/dose iv q1dx5, n=6) was 0.

In the case of CC[C@]1(O)C[C@H]2CN(CCc3c([nH]c4ccccc34)[C@@](C(=O)OC)(c3cc4c(cc3OC)N(C=O)[C@H]3[C@@](O)(C(=O)OC)[C@H](OC(C)=O)[C@]5(CC)C=CCN6CC[C@]43[C@@H]65)C2)C1 [free vincristine, 22-oxovincaleukoblastine], the “total dose at which peripheral neuropathic effects usually begin” value ([2]; 2-3 doses) is listed as 5 to 6 mg and the “cumulative dose after which peripheral neuropathic effects are generally significant” value ([2]; 8-10 doses) is listed as 15 to 20 mg.

For CO[C@@]12[C@H](COC(N)=O)C3=C(C(=O)C(C)=C(N)C3=O)N1C[C@@H]1N[C@@H]12 [Mitomycin C], the “% T/C (optimal % T/C following final treatment)” value ([3]; 3 mg/kg/dose iv q4dx3) was 5%, the “DRD (drug related deaths, n = 6)” value ([3]; 3 mg/kg/dose iv q4dx3) was 0 and the “NCI Score” value ([3]; 3 mg/kg/dose iv q4dx3) was 1. For the same compound, the “T-C (tumor growth delay to 1000 mm^3)” value ([3]; 3 mg/kg/dose iv q4dx3) was 22.2 and the “TF (tumor free animals at the end of study)” value ([3]; 3 mg/kg/dose iv q4dx3, n=6) was 0.

With CCc1c2c(nc3ccc(OC(=O)N4CCC(N5CCCCC5)CC4)cc13)-c1cc3c(c(=O)n1C2)COC(=O)[C@]3(O)CC [Irinotecan] the “% T/C (optimal % T/C following final treatment)” value (DLD-1 colon xenografts; 90 mg/kg/dose iv q4dx3) was 11%, the “DRD (drug related deaths, n = 6)” value (DLD-1 colon xenografts; 90 mg/kg/dose iv q4dx3) was 0 and the “NCI Score” value (DLD-1 colon xenografts; 90 mg/kg/dose iv q4dx3) was 1. For the same compound, the “T-C (tumor growth delay to 1000 mm^3)” value (DLD-1 colon xenografts; 90 mg/kg/dose iv q4dx3) was 17.2 and the “TF (tumor free animals at the end of study)” value (DLD-1 colon xenografts; 90 mg/kg/dose iv q4dx3, n=6) was 0.

Source: US20040071768A1, “Compositions and methods for treating cancer” (Inex Pharmaceuticals Corporation, priority 1999, published 2004)
